Data set [1] has as its target T1, Type II tmAC (tmAC in extracts) (Homo sapiens, UniProt Q08462).
T1 construct: expressed in transfected cells
The data set can be described thus: in vitro cyclase activity in extracts of cells overexpressing Type II tmAC. Particulars: cell printing μM. In kind it is biochemical.

Data set [2] has as its system tmACs. Description: cAMP forming activity inside cells stimulated with forskolin. In kind it is cell-based. The settings on record: read-out: in vivo IC50 tmAC (FSK).
Data set [3] deals with CREB phosphorylation in isolated nuclei. The data set can be described thus: CREB phosphorylation in isolated HeLa nuclei (P2), Western analysis. The data set is classed as biochemical. The settings on record: 40 mM bicarbonate, 50 μM KH7. The method, then: The resuspended pellet and 60% OptiPrep iodixanol were mixed (30% OptiPrep final) and centrifuged at 10,000 g for 20 min. The supernatant was removed and the nuclei-enriched pellet (P2) was resuspended in TM-2 buffer without detergent.
Reactions were stopped by the addition of 20 μl of SDS sample buffer (CREB phosphorylation) or by being placed into a 100° C. heat block for 3 min (adenylyl cyclase).
For whole cell and isolated nuclei CREB phosphorylation assays, equal cell or nuclear equivalents were separated under reducing conditions using a 10% SDS-PAGE, transferred to a PVDF membrane, and probed for CREB (rabbit polyclonal antiserum; Chemicon, Temecula, Calif.) and phosphorylated CREB (rabbit polyclonal antiserum; Upstate Biotechnology, Temecula, Calif.). HRP-conjugated secondary antibodies were used, and bands were visualized using ECL. Image analysis software (model Fluorchem 8800; Alpha Innotech, San Leandro, Calif.) was used to quantitate Western results. Intensities of phospho-CREB bands were normalized to total CREB.

The subject of data set [4] is INS-1E cells. The data set can be described thus: insulin release in INS-1E cells. The data set is classed as cell-based. Particulars: for effect on PMA induced insulin release: PMA 300 nM, 2.5 mM glucose, KH7 30 μM. The method, then:
Briefly, cells (passage 140-150) were plated at 2.5×10^5 cells/well in a 24 well plate and permitted to recover for two days. Cells were glucose starved by incubation for 1 hour in the presence of 2.5 mM glucose KRB medium supplemented with 2 mM sodium bicarbonate, 10 mM Hepes, and 0.1% BSA. After washing, cells were incubated in KRB with either 2.5 mM or 16 mM glucose in the presence of either vehicle control (DMSO or MeOH) or indicated drug. After the indicated time, removed media was cleared of cell debris and secreted insulin was measured by Insulin ELISA kit (Linco Research, St. Charles, Mo., or ALPCO, Windham, N.H.). If cAMP was to be concomitantly measured, cells were pre-treated with IBMX for the final 10 minutes of the glucose starvation and IBMX was included in all subsequent incubations. For the washout experiment, subsequent to initial insulin determination, cells treated with KH7 were placed in fresh KRB (2.5 mM glucose) for an additional hour and insulin release was measured as above in the absence of any added drug. For transferrin recycling, loading of cells with I^125 transferrin was performed during hour incubation in 2.5 mM glucose KRB.

Data set [5] has as its system primary mouse islets. Description: insulin release from isolated mouse islets. The data set is classed as cell-based. The settings on record: 16.7 mM glucose, 30 minutes, 30 μM KH7. The method, then: After several washes with Hank's Balanced Salt Solution, islets were hand-picked and 15-20 islets were distributed into each well of a 12 well plate to adhere overnight in RPMI-1640 media supplemented with 10 mM HEPES, 5.6 mM glucose, 10% FBS, 2 mM L-glutamine, 1 mM sodium pyruvate, and antibiotics.
Insulin release from isolated islets was performed in 12 well plates. Islets were preincubated in KRB (2.8 mM glucose) for 1 hour followed by incubation for 30 minutes in 2.8 mM glucose KRB in the presence of drug. The same wells were then incubated for an additional 30 minutes in 16.7 mM glucose KRB in the presence of the same drugs. Media was removed, cleared of cells, and insulin was measured.

Data set [6] deals with sAC overexpressing INS-1E cells. Description: insulin secretion in sAC overexpressing INS-1E cells (SF2). In kind it is cell-based. The settings on record: 30 μM KH7, 15 minutes. The text has this:
FIGS. 14A-C illustrate that sAC-generated cAMP, distinct from tmAC-generated cAMP, is sufficient to elicit insulin secretion. […] Shown is a representative assay repeated at least five times; values indicate duplicate determinations with standard deviations. […] Shown is a representative assay repeated at least five times; values indicate duplicate determinations with standard deviations. Insert is a Western blot indicating the levels of sAC protein in INS-1E, SF2, and SF5 cells. […] Values represent mean±SEM (n=3). ANOVA analysis was performed with asterisks indicating statistically significant differences. ***=p<0.001. […]
Briefly, cells (passage 140-150) were plated at 2.5×10^5 cells/well in a 24 well plate and permitted to recover for two days. […] After the indicated time, removed media was cleared of cell debris and secreted insulin was measured by Insulin ELISA kit (Linco Research, St. Charles, Mo., or ALPCO, Windham, N.H.). If cAMP was to be concomitantly measured, cells were pre-treated with IBMX for the final 10 minutes of the glucose starvation and IBMX was included in all subsequent incubations. For the washout experiment, subsequent to initial insulin determination, cells treated with KH7 were placed in fresh KRB (2.5 mM glucose) for an additional hour and insulin release was measured as above in the absence of any added drug. […]

A short description of data set [7]: glucose tolerance test in C57BL/6 mice. In kind it is in vivo, mouse. The method, then:
C57B1/6 adult male mice were maintained on a 12 hour light/dark cycle, with free access to water and standard laboratory chow (Research Animal Resource Center, Weill Medical College of Cornell University). Animals were treated in accordance with our institutions guidelines. After a 14-16 hour overnight fast with free access to water, blood was removed from the tail vein for glucose (Hemocue B-Glucose Microcuvette and Analyzer; Hemocue, Inc., Lake Forest, Calif.) and insulin (Rat/Mouse Insulin ELISA Kit; Linco Research) measurements. Mice then received an i.p injection of 100 mM KH7 (100 μmoles/kg) or vehicle control. Twenty minutes later, both groups were injected i.p. with 1 g/kg glucose (20% solution). Blood samples were taken from the tail vein at times indicated, and glucose and insulin were quantitated according to manufacturer's instructions.

Data set [8] relates to Plasmodium falciparum. Description: Plasmodium falciparum viability, luciferase assay. In kind it is cell-based. The settings on record: 24 hours. The method, then:
. Plasmodium cultures were incubated in the indicated concentrations of KH7 or KH7.15 for 24 hours and viability assessed by luciferase assay (FIG. 16A). […].
Therefore, the effect of sAC inhibitors on P. falciparum viability was tested. […].

The subject of data set [9] is PfAC. The data set can be described thus: adenylyl cyclase activity in whole cell extract of isolated parasites. The data set is classed as biochemical, Plasmodium falciparum. Particulars: MnCl2 and ATP.
For data set [10], the system named is Rap1 activation. Description: NGF induced Rap1 activation in PC12 cells. In kind it is cell-based. Particulars: 15 minutes, KH7 50 μM. The method, then: FIG. 18 illustrates that NGF induced Rap1 activation is blocked by KH7 and rescued by membrane permeable cAMP. PC12 cells were stimulated with or without nerve growth factor (NGF) for 15 minutes in the presence or absence of KH7 (50 μM) and 1 mM 8Br-cAMP.

Data set [11] has as its system tmACs. Description: adenylyl cyclase activity in forskolin stimulated INS-1E cell lysate. The settings on record: forskolin (10 μM) stimulated INS-1E.
Method: In vitro adenylyl cyclase assays were performed on purified recombinant human sACt protein as previously described in Litvin et al., “Kinetic Properties of “Soluble” Adenylyl Cyclase.

SMILES strings stand for the structures. pIC50: −log10 of the molar value. Entries after “also recorded” stand apart in the source; their conditions may differ.

T1 sequence (Q08462 whole entry): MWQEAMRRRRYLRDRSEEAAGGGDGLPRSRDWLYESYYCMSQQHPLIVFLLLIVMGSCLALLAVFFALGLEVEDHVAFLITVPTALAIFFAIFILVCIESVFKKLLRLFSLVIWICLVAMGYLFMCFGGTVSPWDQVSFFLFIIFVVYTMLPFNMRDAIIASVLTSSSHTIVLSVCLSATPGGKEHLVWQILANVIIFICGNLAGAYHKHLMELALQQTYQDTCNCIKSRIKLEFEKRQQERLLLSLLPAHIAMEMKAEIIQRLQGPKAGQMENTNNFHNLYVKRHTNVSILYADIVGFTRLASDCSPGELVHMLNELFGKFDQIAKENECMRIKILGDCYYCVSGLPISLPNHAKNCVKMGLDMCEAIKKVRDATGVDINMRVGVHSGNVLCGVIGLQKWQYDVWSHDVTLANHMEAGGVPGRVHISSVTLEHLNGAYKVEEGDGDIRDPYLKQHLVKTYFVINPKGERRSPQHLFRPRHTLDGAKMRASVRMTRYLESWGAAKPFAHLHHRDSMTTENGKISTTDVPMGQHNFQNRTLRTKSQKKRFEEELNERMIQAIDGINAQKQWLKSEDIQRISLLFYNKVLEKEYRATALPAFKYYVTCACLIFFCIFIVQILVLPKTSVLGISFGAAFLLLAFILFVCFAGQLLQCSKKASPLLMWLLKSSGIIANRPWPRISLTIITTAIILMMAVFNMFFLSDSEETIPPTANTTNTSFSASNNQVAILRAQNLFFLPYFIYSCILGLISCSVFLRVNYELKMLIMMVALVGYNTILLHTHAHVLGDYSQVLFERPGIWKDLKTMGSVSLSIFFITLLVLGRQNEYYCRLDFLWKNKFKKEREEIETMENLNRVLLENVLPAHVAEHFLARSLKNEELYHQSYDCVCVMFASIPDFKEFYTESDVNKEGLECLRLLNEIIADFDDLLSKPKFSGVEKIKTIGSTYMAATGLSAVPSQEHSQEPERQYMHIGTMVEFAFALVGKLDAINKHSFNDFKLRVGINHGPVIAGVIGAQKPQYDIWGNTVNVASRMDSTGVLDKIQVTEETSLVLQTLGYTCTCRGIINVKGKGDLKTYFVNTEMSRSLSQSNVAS

Turning to `CC(Sc1nc2ccccc2[nH]1)C(=O)N/N=C/c1cc(Br)ccc1O` (centres unmarked) [KH7], in data set [1], the IC50 – broadly, the concentration that inhibits the measured activity by half – is > 100 µM. The negative logarithm of the IC50 (pIC50) (usually the negative decadic logarithm of the IC50, by convention in mol/L) is < 3.30 in data set [2] and ~5.30 in data set [4] (INS-1E, 0.5 h, 16 mM glucose, 30 minutes, read-out: IC50 for inhibition of glucose-stimulated insulin secretion (GSIS)). For the same molecule, the “effect on bicarbonate-induced CREB phosphorylation” value in [3] was “effective in preventing bicarbonate-induced CREB phosphorylation”. Moreover, the “rescue of KH7 inhibition of GSIS by cAMP analog” value in [4] (50 μM KH7, 1 mM 8-Br-SpcAMP) is recorded as “rescued by addition of a membrane-permeable cAMP analog”. For the same molecule, the “effect on glucose-stimulated insulin secretion (GSIS)” value in data set [4] (16 mM glucose, 30 μM KH7, 30 μM KH7.15, 50 μM 2-hydroxyestradiol, 50 μM 2′5′ddAdo) is recorded as “blocked all insulin release induced by high glucose”. The cellular toxicity result in data set [4] (INS-1E cells) is reported as “not due to cellular toxicity”. In addition, the “effect on PMA induced insulin release” value in [4] (30 minutes) is reported as “unaffected”; in [4] (30 minutes, listed as K17), “does not affect”. Moreover, the “insulin release over time after addition of high glucose” value in [4] (in the presence of KH7) is recorded as “no significant insulin release was observed up to 45 minutes”. Further, the “GSIS after drug washout” value in [4] (sixty minutes following removal of drug) is on record as “normal GSIS was restored”. In data set [5], the “effect on insulin release induced by high glucose in islets” value was “inhibited insulin release induced by high glucose”. The “effect on sAC overexpression-induced increase in insulin release” value in [6] is given as “inhibited”. Moreover, in [7] (100 μmoles/kg KH7 i.p., 1 g/kg glucose i.p.), the “glucose-induced serum insulin release” value was “no statistically significant glucose-induced insulin release was detected”. Further, in data set [7] (100 μmoles/kg [49 mg/kg] KH7 i.p., 1 g/kg glucose i.p.), the glucose tolerance entry is reported as “glucose intolerant”. In addition, the “glucose tolerance test one week after injection” value in data set [7] (one week after KH7, no further drug, n=2) is “normal glucose tolerance and insulin response”. Besides, in [8], the “effect on infectious growth in red blood cells” value was “rapidly (in a single generation) and potently affected”. For the same molecule, the “dose response for inhibiting PfAC activity versus killing parasites” value in data set [9] is “equal dose responses at killing parasites and at inhibiting PfAC activity”. The “effect on NGF induced Rap1 activation” value in data set [10] is on record as “block NGF induced Rap1 activation; also recorded: blocked”. Besides, the “effect on tmACs” value in data set [11] is given as “inert towards tmACs”.

Source of the values: patent publication US9649295B2, “Chemical inhibitors of soluble adenylyl cyclase (sAC)” (Cornell Research Foundation, Inc., priority 2004, dated 2017).
